Test results reported in patent US20240325370A1, “THERAPEUTIC REGIMENS OF A DEGRADER OF BRD9” (FOGHORN THERAPEUTICS INC., priority 2021, published 2024).

Assays:
[1] = target: T1, BRD9 (Homo sapiens, UniProt Q9H8M2); assay: Kinetic experiments of BRD9 degradation in synovial sarcoma cell lines; format: cell-based
T1 sequence (Q9H8M2 1-597): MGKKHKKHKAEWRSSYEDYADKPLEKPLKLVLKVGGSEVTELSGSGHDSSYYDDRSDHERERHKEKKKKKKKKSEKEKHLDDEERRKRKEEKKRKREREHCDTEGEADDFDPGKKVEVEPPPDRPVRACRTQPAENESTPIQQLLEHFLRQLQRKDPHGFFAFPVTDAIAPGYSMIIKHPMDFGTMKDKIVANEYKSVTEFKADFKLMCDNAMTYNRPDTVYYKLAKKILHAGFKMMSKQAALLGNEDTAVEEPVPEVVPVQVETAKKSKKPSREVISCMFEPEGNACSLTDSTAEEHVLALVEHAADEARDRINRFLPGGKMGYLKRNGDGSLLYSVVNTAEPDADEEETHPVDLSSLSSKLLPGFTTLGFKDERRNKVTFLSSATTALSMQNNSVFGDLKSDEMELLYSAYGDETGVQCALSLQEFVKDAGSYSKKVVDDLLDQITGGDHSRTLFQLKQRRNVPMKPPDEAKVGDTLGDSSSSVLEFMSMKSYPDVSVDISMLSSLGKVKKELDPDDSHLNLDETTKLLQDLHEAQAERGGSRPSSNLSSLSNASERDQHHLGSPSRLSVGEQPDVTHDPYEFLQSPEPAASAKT
Method: Kinetic Experiments in Synovial Sarcoma Cell Lines. To assess the rate of BRD9 protein degradation following treatment with compound D1, this compound was administered at a steady dose of 15 nM over multiple time points in SYO-1 and ASKA synovial sarcoma cell lines. After cell treatment, BRD9 protein levels were determined by western blot analyses.
Cells grown in flasks to log phase growth were washed with PBS and dissociated by adding TrypLE™ Express. Two wells were allocated per sample. Plates were incubated at 37° C. with 5% CO2 overnight.
The next day, cells were treated with 15 nM compound D1, with the final DMSO content of 0.1% (v/v) matching the untreated control. After the designated incubation periods for each sample, as indicated in FIGS. 29A and 29B, cells were harvested, resuspended in PBS, and centrifuged at 5,000 rpm for 5 minutes. After being washed twice with PBS, the resulting cell pellets were stored at −80° C.
Cells were processed for western blot analysis as follows (see Table 15 for specific conditions). Cell lysates were prepared by resuspending thawed pellets in RIPA lysis buffer with protease and phosphatase inhibitors and DNA nuclease enzymes. […] Samples were then analysed for total protein using BCA protein quantitation assay following manufacturer's instructions. […]

[2] = target: T1, BRD9; assay: Tumor BRD9 modulation after each regimen, SYO-1 xenograft (western blot); format: in vivo, mice; parameters: from tissue; host or cells: SYO-1 xenograft tumours in BALB/c nude or NOD SCID mice
Text: The racemate, compound D1, which consists of ˜50% compound S-D1, was utilized in an SYO-1 (a synovial sarcoma xenograft) model to explore if similar efficacy is achievable with an intermittent dosing schedule. Due to technical feasibility and animal-welfare considerations, intraperitoneal (IP) administration was chosen over the IV route. […] Groups of female SYO-1 tumor-bearing NOD SCID mice (n=8/group) were intraperitoneally administered with vehicle or compound D1 for 21 days. Compound D1 was formulated as a suspension in 10% DMSO/40% PEG400/50% deionized water, volume/volume (v/v). […] To determine the level of modulation of BRD9 after each regimen, mice (n=4 mice/time-point) were euthanized and tumor samples were collected at different timepoints post-last dose (Day 21). […] BRD9 levels were assessed at 24, 72 and 168 hours (expected time points of trough plasma concentrations) for QD, BIW, and QW regimens respectively, as indicated in Table 8. Samples were analyzed using Western blot method.

[3] = Interconversion between Enantiomer 1 and Enantiomer 2 in cell medium; format: physicochemical; details: Enantiomer 2 dosing, cell medium 37° C.; for Mean peak area ratio of Enantiomer 1 over Enantiomer 2 peak area ratio: 0.2 µM
Method: For the assessment of interconversion between Enantiomer 1 and Enantiomer 2 in cell medium, the following test was performed. […] At designated time point, aliquot (50 μL) was taken and processed by the addition of 150 μL of acetonitrile containing 0.1% formic acid and internal standard for LC/MS-MS analysis. Peak areas of both Enantiomer 1 and Enantiomer 2 were determined for each sample using a chiral specific analytical method.

[4] = Plasma exposure of compound S-D1 after the last dose; format: in vivo, mice
Method: The objective of this study was to provide proof-of-concept of anti-tumor efficacy with intermittent dosing schedules for compound S-D1 by IV administration. Groups of female SYO-1 tumor-bearing NOD SCID mice (n=10/group) were dosed IV with vehicle, compound D1 or compound S-D1 for 24 days according to treatments and dosing schedules shown in Table 10. Compound D1 was formulated in 10% DMSO/40% PEG400/50% water and compound S-D1 was formulated in 20% SBECD in 5 mM citrate buffer, final pH was adjusted to 5 with 1 N NaOH. For the compound S-D1 treatment groups, plasma samples were collected at designated time points following the last dosing. Plasma samples were acidified to stabilize the compound right after collection and analyzed for compound S-D1 concentrations.

Mean peak area ratio of Enantiomer 1 over Enantiomer 2 peak area ratio ([3]; 0 h) | Mean peak area ratio of Enantiomer 1 over Enantiomer 2 peak area ratio ([3]; 0.5 h) | Mean peak area ratio of Enantiomer 1 over Enantiomer 2 peak area ratio ([3]; 2 h) | Mean peak area ratio of Enantiomer 1 over Enantiomer 2 peak area ratio ([3]; 6 h) | % Enantiomer 2 ([3]; 0 h) [%] | % Enantiomer 2 ([3]; 0.5 h) [%] | % Enantiomer 2 ([3]; 2 h) [%] | % Enantiomer 2 ([3]; 6 h) [%] | Structure (SMILES) | BRD9 protein degradation ([1]; ASKA cells, upon 30 minutes of treatment, 15 nM) | time of treatment to markedly deplete BRD9 protein ([1]; SYO-1 cells, 100-fold of NanoLuc DC50 (15 nM)) [h] | BRD9 PD effect in tumor at Cmin ([2]; 0.35 mg/kg BIW or 0.7 mg/kg QW treatment) | BRD9 depletion in tumor at Cmin ([2]; 3.5 mg/kg QW and 0.5 mg/kg QD treated groups) | exposure in plasma versus dose ([4]; from 0.05 to […] IV) | exposure in plasma versus dose ([4]; from 0.25 to 2 mg/kg IV)
 |  |  |  |  |  |  |  | COc1cc(-c2cn(C)c(=O)c3cnc(N4CCC4)cc23)cc(OC)c1CN1CCC(CN2CCC3(CC2)CN(c2ccc4c(c2)C(=O)N(C2CCC(=O)NC2=O)C4)C3)CC1 (racemic) [Compound D1, 3-[6-(7-[[1-([4-[6-(azetidin-1-yl)-2-methyl-1-oxo-2,7-naphthyridin-4-yl]-2,6-dimethoxyphenyl]methyl)piperidin-4-yl]methyl]-2,7-diazaspiro[3.5]nonan-2-yl)-1-oxo-3H-isoindol-2-yl]piperidine-2,6-dione] | nearly complete BRD9 protein degradation | ≤ 2 | intermediate PD effect | Nearly complete BRD9 depletion |  | 
0.01 | 0.06 | 0.22 | 0.60 | 99 | 95 | 82 | 63 | COc1cc(-c2cn(C)c(=O)c3cnc(N4CCC4)cc23)cc(OC)c1CN1CCC(CN2CCC3(CC2)CN(c2ccc4c(c2)C(=O)N([C@H]2CCC(=O)NC2=O)C4)C3)CC1 (single isomer, unassigned) [Compound S-D1] |  |  |  |  | increased more than proportionally to dose | slightly less than proportionally to dose
